In general, Ki refers to the equilibrium dissociation constant of an inhibitor or competing ligand from its target. High values mean a looser hold on the target, low ones a stronger hold on the target.

This assay has as its target Prostate-specific membrane antigen (PSMA) (Homo sapiens, UniProt Q04609). In words: fluorescence-based NAALADase inhibition assay. In kind it is biochemical.

Prostate-specific membrane antigen (PSMA), sequence (Q04609 whole entry): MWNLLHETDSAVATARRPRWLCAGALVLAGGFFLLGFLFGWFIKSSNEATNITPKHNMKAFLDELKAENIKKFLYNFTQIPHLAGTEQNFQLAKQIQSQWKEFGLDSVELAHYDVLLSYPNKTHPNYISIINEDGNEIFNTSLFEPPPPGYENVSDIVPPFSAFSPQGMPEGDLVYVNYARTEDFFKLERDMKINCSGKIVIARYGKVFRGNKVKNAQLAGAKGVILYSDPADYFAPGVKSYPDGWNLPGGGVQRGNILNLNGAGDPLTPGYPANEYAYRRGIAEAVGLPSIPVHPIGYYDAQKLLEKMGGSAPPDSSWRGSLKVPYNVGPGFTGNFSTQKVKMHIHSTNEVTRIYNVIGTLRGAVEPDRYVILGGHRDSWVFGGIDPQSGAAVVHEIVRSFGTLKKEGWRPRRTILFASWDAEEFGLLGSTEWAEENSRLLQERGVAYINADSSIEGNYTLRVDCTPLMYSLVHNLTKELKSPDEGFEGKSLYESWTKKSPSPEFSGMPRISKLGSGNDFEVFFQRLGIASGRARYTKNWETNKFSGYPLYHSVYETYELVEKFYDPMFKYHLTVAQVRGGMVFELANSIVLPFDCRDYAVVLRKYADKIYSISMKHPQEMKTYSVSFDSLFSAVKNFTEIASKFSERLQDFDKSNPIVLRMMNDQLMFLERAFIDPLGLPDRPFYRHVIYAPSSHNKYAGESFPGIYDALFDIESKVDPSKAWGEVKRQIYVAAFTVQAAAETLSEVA

In the case of YC-9, the affinity corresponds to a Ki of 0.2 nM.
